The record followed here is ChEMBL document CHEMBL5465560, “Selectivity Literature for EUbOPEN Chemogenomic Library” (2024).

The target of experiment [1] is Calcium/calmodulin-dependent protein kinase type II subunit beta (Homo sapiens) (UniProt Q13554). As to the kind of experiment: Selectivity interaction (KinomeScan (DiscoverX)) EUB0000595a CAMK2B. Particulars: at 10 µM.
For experiment [2], the target named is Tyrosine-protein kinase Fer (Homo sapiens) (UniProt P16591). The experiment can be described thus: Selectivity interaction (KinomeScan (DiscoverX)) EUB0000595a FER. Particulars: at 10 µM.
Sequence of Tyrosine-protein kinase Fer (Homo sapiens) (P16591 whole entry, looked up): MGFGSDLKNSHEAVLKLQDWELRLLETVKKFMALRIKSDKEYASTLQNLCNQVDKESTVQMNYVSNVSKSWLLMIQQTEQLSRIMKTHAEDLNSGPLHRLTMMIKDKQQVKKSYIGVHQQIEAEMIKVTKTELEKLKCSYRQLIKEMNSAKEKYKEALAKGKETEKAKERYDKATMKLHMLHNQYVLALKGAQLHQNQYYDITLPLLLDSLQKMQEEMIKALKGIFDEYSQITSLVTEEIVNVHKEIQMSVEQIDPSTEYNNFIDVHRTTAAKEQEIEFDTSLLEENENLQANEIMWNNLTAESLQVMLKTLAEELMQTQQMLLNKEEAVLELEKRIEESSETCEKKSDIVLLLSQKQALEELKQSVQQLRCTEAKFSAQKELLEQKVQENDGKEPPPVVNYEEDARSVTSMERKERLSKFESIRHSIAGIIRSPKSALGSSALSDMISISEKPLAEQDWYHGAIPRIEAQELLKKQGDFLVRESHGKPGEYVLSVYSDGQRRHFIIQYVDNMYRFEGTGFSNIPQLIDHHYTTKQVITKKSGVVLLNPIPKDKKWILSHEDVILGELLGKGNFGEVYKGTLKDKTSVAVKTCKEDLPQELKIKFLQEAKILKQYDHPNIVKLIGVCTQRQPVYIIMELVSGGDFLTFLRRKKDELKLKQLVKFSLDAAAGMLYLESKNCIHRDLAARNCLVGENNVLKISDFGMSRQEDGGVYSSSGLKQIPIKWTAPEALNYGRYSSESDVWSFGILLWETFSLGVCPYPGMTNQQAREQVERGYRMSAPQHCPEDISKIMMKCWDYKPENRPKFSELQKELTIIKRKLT
The target of experiment [3] is Protein kinase C delta type (Homo sapiens) (UniProt Q05655). As to the kind of experiment: Selectivity interaction (KinomeScan (DiscoverX)) EUB0000607a PRKCD. Particulars: at 10 µM.
Sequence of Protein kinase C delta type (Homo sapiens) (Q05655 whole entry, looked up): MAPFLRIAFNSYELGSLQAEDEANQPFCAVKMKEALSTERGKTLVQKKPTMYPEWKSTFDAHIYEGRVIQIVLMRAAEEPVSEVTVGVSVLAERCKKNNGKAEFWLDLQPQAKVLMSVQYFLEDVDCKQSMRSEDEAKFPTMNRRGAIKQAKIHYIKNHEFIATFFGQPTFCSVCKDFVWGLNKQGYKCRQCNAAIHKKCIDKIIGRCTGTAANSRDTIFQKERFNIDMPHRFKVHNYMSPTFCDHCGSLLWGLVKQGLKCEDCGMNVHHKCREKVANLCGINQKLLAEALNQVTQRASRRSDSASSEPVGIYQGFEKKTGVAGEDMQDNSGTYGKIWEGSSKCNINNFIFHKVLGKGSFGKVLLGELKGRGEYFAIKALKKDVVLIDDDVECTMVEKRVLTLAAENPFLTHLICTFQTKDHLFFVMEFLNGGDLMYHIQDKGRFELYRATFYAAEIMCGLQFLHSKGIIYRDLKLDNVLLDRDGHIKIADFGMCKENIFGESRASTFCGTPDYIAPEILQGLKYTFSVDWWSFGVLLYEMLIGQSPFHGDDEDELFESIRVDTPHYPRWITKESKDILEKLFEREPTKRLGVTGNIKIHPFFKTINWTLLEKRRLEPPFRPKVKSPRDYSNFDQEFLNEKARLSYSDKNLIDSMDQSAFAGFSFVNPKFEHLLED
The target of experiment [4] is T1, Protein kinase C iota type (Homo sapiens) (UniProt P41743).
T1 sequence (whole entry): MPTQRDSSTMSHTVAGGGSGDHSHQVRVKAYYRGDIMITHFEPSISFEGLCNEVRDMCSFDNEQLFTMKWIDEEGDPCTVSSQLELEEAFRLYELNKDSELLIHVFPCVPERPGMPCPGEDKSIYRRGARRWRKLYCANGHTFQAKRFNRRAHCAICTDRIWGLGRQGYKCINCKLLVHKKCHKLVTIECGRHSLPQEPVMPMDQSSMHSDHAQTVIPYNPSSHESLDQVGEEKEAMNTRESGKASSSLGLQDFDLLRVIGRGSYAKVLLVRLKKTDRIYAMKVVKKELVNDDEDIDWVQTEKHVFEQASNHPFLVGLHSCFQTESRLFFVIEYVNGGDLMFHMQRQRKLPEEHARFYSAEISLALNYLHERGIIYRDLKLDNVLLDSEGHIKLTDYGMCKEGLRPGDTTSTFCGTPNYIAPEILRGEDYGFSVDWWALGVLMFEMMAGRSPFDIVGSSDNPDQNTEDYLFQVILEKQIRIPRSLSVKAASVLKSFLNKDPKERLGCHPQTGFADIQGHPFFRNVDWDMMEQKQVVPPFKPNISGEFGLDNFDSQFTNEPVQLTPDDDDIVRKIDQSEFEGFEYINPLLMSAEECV
The experiment can be described thus: Selectivity interaction (SelectScreen profiling (Invitrogen)) EUB0000607a PRKCI. Particulars: at 2 µM.

Experiment [5] addresses Ribosomal protein S6 kinase alpha-4 (Homo sapiens) (UniProt O75676). Particulars: at 10 µM.
The target in experiment [6] is Serine/threonine-protein kinase MRCK gamma (Homo sapiens) (UniProt Q6DT37). Particulars: at 10 µM.
Experiment [7] addresses Tyrosine-protein kinase Fer (Homo sapiens) (UniProt P16591). The experiment can be described thus: Selectivity interaction (KinomeScan (DiscoverX)) EUB0000045b FER.
In experiment [8] the target is Interleukin-1 receptor-associated kinase 1 (Homo sapiens) (UniProt P51617). The experiment can be described thus: Selectivity interaction (ProQinase) EUB0000171b IRAK1.
Sequence of Interleukin-1 receptor-associated kinase 1 (Homo sapiens) (P51617 whole entry, looked up, canonical isoform): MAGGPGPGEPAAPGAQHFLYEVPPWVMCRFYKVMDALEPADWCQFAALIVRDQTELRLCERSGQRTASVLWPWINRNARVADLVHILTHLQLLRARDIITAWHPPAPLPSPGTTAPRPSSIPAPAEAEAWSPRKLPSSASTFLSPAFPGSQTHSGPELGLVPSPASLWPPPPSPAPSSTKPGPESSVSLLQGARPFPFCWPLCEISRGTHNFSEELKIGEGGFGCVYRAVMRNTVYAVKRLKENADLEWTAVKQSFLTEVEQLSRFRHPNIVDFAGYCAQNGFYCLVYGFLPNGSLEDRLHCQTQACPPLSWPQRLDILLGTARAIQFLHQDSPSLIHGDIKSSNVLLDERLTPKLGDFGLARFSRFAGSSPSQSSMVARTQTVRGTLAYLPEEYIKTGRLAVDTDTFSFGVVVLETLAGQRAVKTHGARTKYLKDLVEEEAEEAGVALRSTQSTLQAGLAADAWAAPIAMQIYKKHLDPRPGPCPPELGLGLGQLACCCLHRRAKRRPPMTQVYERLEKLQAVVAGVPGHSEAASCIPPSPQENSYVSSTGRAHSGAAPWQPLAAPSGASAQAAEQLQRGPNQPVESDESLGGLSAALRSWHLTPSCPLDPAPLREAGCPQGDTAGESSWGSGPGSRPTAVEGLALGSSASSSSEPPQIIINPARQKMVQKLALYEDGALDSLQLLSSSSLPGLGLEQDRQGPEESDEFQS
The target of experiment [9] is Casein kinase I isoform gamma-1 (Homo sapiens) (UniProt Q9HCP0). The experiment can be described thus: Selectivity interaction (KinomeScan (DiscoverX)) EUB0001049a CSNK1G1. Particulars: at 1 µM.
Sequence of Casein kinase I isoform gamma-1 (Homo sapiens) (Q9HCP0 whole entry, looked up, canonical isoform): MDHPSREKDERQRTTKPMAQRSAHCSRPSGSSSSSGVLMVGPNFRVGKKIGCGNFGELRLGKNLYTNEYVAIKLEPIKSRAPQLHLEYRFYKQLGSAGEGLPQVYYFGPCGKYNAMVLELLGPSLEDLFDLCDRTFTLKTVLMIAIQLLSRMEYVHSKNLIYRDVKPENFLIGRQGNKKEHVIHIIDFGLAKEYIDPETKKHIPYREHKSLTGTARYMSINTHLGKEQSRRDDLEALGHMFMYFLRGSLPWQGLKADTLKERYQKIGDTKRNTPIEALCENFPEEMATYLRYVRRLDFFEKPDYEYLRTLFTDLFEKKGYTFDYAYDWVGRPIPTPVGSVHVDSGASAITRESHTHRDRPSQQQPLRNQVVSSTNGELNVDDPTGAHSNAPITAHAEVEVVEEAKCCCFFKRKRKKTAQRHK
Experiment [10] deals with Vascular endothelial growth factor receptor 2 (Homo sapiens, UniProt P35968). The experiment can be described thus: Selectivity interaction (KinomeScan (DiscoverX)) EUB0001049a KDR. Particulars: at 1 µM.
Sequence of Vascular endothelial growth factor receptor 2 (P35968 whole entry): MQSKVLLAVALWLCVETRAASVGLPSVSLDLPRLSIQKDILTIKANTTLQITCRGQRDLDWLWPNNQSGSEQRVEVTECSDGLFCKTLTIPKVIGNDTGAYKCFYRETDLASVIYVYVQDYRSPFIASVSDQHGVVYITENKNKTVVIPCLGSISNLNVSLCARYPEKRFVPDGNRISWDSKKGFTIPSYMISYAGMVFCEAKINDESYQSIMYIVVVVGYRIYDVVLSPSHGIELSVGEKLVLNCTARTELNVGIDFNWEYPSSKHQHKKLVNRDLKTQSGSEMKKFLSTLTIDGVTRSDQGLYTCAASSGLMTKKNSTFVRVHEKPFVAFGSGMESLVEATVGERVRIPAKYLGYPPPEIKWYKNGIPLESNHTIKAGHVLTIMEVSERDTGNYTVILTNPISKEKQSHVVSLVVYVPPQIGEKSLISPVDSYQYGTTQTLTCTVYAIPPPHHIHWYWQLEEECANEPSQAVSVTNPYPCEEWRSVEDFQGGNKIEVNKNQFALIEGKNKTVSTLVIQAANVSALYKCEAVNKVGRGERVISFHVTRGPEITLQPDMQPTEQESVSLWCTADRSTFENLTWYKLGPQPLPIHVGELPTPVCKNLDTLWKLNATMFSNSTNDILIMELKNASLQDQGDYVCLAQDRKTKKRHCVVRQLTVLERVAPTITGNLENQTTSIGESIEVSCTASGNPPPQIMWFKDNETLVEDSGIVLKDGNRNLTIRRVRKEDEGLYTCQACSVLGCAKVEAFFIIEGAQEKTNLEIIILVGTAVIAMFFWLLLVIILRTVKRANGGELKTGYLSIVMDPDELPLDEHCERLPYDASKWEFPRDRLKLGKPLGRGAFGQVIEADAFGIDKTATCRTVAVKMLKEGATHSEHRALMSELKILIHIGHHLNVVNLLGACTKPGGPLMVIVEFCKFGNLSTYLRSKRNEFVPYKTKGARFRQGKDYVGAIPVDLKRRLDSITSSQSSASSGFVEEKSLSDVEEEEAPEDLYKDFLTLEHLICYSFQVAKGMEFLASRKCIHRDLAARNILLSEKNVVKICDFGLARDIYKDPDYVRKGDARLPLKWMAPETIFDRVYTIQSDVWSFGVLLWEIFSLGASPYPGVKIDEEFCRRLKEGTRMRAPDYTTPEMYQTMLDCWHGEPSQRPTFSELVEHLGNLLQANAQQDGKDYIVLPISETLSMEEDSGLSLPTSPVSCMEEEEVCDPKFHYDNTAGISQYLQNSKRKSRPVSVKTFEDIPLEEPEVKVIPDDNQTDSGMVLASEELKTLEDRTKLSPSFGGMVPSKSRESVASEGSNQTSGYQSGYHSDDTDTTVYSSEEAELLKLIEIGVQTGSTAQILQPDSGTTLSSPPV
Experiment [11] addresses Sodium-dependent noradrenaline transporter (Homo sapiens, UniProt P23975). The experiment can be described thus: Selectivity interaction (Panel of kinases, GPCRs, ion channels and transporters (enzymatic assay)) EUB0000223bCl SLC6A2.
Experiment [12] has as its target Serine/threonine-protein kinase MRCK beta (Homo sapiens) (UniProt Q9Y5S2). As to the kind of experiment: Selectivity interaction (Upstate Kinase Profiler service (Millipore)) EUB0000056c CDC42BPB. Particulars: at 1 µM.
Experiment [13] has as its target Dual specificity protein kinase CLK4 (Homo sapiens, UniProt Q9HAZ1). As to the kind of experiment: Selectivity interaction (KinomeScan (DiscoverX)) EUB0000655a CLK4. Particulars: at 10 µM.
The target of experiment [14] is T2, Discoidin domain-containing receptor 2 (Homo sapiens) (UniProt Q16832).
T2 sequence (whole entry): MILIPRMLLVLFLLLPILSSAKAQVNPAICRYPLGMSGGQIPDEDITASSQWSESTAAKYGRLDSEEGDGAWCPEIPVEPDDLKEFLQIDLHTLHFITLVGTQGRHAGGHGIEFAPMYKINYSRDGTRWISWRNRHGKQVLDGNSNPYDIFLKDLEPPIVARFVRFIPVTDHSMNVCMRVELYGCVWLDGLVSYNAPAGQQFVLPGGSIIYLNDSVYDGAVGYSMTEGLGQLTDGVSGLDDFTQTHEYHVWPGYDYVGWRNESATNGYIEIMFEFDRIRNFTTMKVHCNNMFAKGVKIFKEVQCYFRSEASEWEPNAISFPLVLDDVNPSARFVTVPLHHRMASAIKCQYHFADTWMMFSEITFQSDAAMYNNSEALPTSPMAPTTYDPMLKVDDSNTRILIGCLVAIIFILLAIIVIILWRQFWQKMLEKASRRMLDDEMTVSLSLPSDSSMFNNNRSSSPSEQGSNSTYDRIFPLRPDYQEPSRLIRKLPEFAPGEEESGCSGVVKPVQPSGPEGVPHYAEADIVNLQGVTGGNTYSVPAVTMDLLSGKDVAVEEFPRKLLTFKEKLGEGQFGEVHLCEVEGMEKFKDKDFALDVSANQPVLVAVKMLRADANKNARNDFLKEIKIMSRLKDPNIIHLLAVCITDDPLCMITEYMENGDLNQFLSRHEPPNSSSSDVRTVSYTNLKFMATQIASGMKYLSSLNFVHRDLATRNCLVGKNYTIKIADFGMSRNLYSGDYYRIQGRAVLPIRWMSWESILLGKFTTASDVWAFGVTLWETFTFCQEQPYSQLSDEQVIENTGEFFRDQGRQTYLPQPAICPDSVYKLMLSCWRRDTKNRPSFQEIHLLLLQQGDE
The experiment can be described thus: Selectivity interaction (KinomeScan (DiscoverX)) EUB0000655a DDR2. Particulars: at 10 µM.

Experiment [15] concerns the target Cyclin-dependent kinase-like 1 (Homo sapiens) (UniProt Q00532). The experiment can be described thus: Selectivity interaction (KinomeScan (DiscoverX)) EUB0000618a CDKL1. Particulars: at 10 µM.
Experiment [16] addresses Calcium/calmodulin-dependent protein kinase type II subunit beta (Homo sapiens) (UniProt Q13554). As to the kind of experiment: Selectivity interaction (KinomeScan (DiscoverX)) EUB0000092b CAMK2B. Particulars: at 10 µM.
Experiment [17] has as its target Cyclin-dependent kinase 11B (Homo sapiens) (UniProt P21127). The experiment can be described thus: Selectivity interaction (KinomeScan (DiscoverX)) EUB0000229b CDK11B. Particulars: at 10 µM.

Sequence of Calcium/calmodulin-dependent protein kinase type II subunit beta (Homo sapiens) (Q13554 whole entry): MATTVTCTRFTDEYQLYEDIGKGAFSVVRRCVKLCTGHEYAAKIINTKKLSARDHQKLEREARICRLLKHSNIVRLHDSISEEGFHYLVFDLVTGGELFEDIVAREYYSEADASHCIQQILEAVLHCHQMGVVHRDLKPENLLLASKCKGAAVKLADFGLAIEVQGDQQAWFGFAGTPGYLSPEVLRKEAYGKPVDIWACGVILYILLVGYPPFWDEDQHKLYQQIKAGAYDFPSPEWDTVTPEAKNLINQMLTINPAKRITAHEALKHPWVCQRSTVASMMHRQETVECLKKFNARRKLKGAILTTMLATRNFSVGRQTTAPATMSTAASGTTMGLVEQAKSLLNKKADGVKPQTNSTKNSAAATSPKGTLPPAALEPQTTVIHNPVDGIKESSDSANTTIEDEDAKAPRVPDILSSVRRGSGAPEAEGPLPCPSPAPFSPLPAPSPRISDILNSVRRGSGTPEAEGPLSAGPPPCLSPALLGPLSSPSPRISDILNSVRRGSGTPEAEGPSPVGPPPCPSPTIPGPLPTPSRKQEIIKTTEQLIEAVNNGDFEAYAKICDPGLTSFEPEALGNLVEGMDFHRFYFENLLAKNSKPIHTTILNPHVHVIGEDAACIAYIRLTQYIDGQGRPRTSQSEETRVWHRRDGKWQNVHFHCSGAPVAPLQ
Sequence of Cyclin-dependent kinase-like 1 (Homo sapiens) (Q00532 whole entry): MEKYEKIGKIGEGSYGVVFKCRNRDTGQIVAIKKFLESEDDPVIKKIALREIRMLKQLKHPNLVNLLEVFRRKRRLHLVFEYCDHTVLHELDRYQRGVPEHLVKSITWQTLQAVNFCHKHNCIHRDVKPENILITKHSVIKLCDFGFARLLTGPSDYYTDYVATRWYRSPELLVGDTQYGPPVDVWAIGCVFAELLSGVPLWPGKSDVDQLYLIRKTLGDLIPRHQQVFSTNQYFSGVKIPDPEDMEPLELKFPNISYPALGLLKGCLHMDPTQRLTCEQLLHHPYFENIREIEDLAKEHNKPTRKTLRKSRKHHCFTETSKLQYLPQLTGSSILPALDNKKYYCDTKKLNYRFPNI

Consider `COCC(=O)NC/C=C/c1ccc2ncnc(Nc3ccc(Oc4ccc(C)nc4)c(C)c3)c2c1` [CP-724714], for which the % of control was found to be 88% in [1] and 100% in experiment [2].

Turning to `CNC(=O)Nc1ccc(-c2nc(N3CC4CCC(C3)O4)c3cnn(C4CCC5(CC4)OCCO5)c3n2)cc1`, the % of control in [3] was 100%. The compound also returned a % of inhibition in experiment [4] of 6%.

In the case of `Cc1cc([C@@H](C)Nc2ccccc2C(=O)O)c2nc(N3CCOCC3)cc(=O)n2c1` [AZD-6482], the values for the % of control in experiment [5] and in experiment [6] were 94% and 100%, respectively.

Consider `C=CC(=O)Nc1cc(-n2c(=O)ccc3cnc4ccc(-c5ccc(NS(C)(=O)=O)cc5)cc4c32)ccc1C`, for which the % of control amounted to 66% in experiment [7] (at 1 µM) and 89% in experiment [7] (at 10 µM).

As to `C=CC(=O)Nc1cccc(C(=O)Nc2ccc(Nc3cc(-c4[nH]c(SC)nc4C)ccn3)cc2)c1`, the results for the % of control in experiment [8] (at 1 µM) and in [8] (at 5 µM) were 50% and 11%, respectively.

Regarding `COc1cc(Nc2nc(C)cc(-c3cnn4nc(OC)ccc34)n2)cc(C(F)(F)F)c1`, the % of control was found to be 100% in experiment [9] and 95% in [10].

Turning to `COc1cc(C(=O)N2CC[C@@H](O)[C@@H](N)C2)cc2nc(-c3cc4ccccc4n3CC3CC3)n(C)c12`, the pXC50 in experiment [11] came out at 4.7 M.

With `Cc1ccc(-c2ccc3c(ccc4sc5c(c43)NC[C@@H](C)NC5=O)n2)cn1`, the % of inhibition in experiment [12] was 4%.

For `CN(C)CCOc1ccc(-c2nc(-c3ccncc3)c(-c3ccc4c(c3)CC/C4=N\O)[nH]2)cc1`, the % of control in experiment [13] came out at 68%; in experiment [14], 67%.

Consider `O[C@H]1CC[C@H](Nc2ncc3nc(Nc4c(F)cc(F)cc4F)n([C@H]4CCOC4)c3n2)CC1`, for which the % of control in [15] came to 95%.

In the case of `CCC(=O)N1CCN(c2ccc(-n3c(=O)ccc4cnc5ccc(-c6cnc7ccccc7c6)cc5c43)cc2C(F)(F)F)CC1`, in experiment [16], the % of control stood at 100%.

`COc1cc(N(C)c2ccnc3ccc(C(F)(F)F)cc23)cc(OC)c1OC`: the % binding in experiment [17] worked out at 85%.
